The results in this text go back to paper PMC5830651 (Molecular Oncology, 2018).

Common to all, as to type: biochemical
The target in one assay is T1, LCK (Homo sapiens, UniProt P06239).
T1 construct: recombinant
Put plainly: in vitro kinase assay. The source says:
in vitro kinase assay on LCK

The next assay concerns the target T2, CDK6/D3 (Homo sapiens, UniProt Q00534).
T2 construct: recombinant human kinase complex; with G1/S-specific cyclin-D3
Kind of assay: in vitro kinase assay. To be noted: read-out: CCT068127 Mean IC50 (μmol.L^-1) ± SE; mean of three independent repeats. The source says: in vitro kinase assay on CDK6/D3

For another assay, the target named is T3, PLK1 (Homo sapiens, UniProt P53350).
T3 construct: recombinant
Put plainly: in vitro kinase assay. An excerpt:
in vitro kinase assay on PLK1

Another assay has as its target T4, ERK2 (Homo sapiens, UniProt P28482).
T4 construct: gene MAPK1; recombinant
Kind of assay: in vitro kinase assay. An excerpt: in vitro kinase assay on ERK2

For another assay, the target named is T5, ABL (Homo sapiens, UniProt P00519).
T5 construct: gene ABL1; recombinant
Put plainly: in vitro kinase assay. The source says: in vitro kinase assay on ABL

A further assay has as its target T6, AURKA (Homo sapiens, UniProt O14965).
T6 construct: recombinant
T6 sequence (O14965 1-403): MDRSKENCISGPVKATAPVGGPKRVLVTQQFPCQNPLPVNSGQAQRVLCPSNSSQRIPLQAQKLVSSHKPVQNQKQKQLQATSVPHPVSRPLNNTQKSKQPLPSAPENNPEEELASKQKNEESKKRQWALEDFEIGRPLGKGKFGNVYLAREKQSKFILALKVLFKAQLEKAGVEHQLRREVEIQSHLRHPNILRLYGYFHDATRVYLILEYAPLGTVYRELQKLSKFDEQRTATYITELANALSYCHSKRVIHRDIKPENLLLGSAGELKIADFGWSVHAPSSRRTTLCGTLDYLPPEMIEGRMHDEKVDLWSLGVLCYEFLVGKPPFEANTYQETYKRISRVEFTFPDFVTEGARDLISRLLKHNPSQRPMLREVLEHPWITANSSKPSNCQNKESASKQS
Kind of assay: in vitro kinase assay. The source says: in vitro kinase assay on AURKA

Another assay concerns the target T7, SAP2KA (Homo sapiens, UniProt Q16539).
T7 construct: gene MAPK14; recombinant; printed SAP2KA, read as SAPK2A
Put plainly: in vitro kinase assay. The source says:
in vitro kinase assay on SAP2KA

In another assay the target is T8, FLT3 (Homo sapiens, UniProt P36888).
T8 construct: recombinant
T8 sequence (P36888 27-993): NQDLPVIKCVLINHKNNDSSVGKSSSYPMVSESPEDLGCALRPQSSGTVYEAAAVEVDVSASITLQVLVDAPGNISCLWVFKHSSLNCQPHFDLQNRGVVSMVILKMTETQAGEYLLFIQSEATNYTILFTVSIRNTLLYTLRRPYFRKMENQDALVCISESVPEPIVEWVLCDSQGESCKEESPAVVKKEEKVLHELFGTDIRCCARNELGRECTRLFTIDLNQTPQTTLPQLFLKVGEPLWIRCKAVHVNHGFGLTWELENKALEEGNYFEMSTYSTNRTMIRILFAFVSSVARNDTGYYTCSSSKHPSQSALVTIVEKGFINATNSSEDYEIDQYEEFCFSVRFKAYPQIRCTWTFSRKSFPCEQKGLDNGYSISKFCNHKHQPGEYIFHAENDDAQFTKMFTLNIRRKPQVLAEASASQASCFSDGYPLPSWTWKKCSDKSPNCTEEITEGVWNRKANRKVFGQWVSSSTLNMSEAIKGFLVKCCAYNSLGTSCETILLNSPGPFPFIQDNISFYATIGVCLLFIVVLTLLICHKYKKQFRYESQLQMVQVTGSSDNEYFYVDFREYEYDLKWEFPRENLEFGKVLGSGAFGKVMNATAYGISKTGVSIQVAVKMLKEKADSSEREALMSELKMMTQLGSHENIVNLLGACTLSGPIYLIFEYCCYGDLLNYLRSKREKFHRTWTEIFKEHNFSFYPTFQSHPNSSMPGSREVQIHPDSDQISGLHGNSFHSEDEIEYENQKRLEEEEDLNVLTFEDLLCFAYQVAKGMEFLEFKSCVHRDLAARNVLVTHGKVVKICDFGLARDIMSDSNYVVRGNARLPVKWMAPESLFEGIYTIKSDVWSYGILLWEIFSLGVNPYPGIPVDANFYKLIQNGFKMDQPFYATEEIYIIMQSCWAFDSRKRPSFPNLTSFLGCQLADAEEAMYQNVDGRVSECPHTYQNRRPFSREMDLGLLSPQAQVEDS
Kind of assay: in vitro kinase assay. An excerpt:
in vitro kinase assay on FLT3

A further assay deals with T9, PDGFB (Homo sapiens, UniProt P09619).
T9 construct: gene PDGFRB; recombinant kinase; printed PDGFB, must be the receptor kinase PDGFR beta
Kind of assay: in vitro kinase assay. The source says: in vitro kinase assay on PDGFB

Another assay concerns the target T10, SRC (Homo sapiens, UniProt P12931).
T10 construct: recombinant
Put plainly: in vitro kinase assay. The source says:
in vitro kinase assay on SRC

The next assay has as its target T11, CDK1/B (CDK1/cyclin B) (Homo sapiens, UniProt P06493).
T11 construct: recombinant human kinase complex; with G2/mitotic-specific cyclin-B1
Put plainly: in vitro kinase assay. The settings on record: read-out: CCT068127 Mean IC50 (μmol.L^-1) ± SE; mean of three independent repeats. The source says: in vitro kinase assay on CDK1/B (CDK1/cyclin B)

For a further assay, the target named is T12, CDK5/p35 (Homo sapiens, UniProt Q00535).
T12 construct: recombinant complex, Invitrogen Select Screen service
Put plainly: Invitrogen Select Screen kinase assay. The settings on record: read-out: CCT068127 Mean IC50 (μmol.L^-1) ± SE; mean of two determinations. The source says:
Invitrogen Select Screen kinase assay on CDK5/p35

By IC50 is commonly meant the midpoint of a concentration-inhibition curve.

T10 sequence (P12931 2-536): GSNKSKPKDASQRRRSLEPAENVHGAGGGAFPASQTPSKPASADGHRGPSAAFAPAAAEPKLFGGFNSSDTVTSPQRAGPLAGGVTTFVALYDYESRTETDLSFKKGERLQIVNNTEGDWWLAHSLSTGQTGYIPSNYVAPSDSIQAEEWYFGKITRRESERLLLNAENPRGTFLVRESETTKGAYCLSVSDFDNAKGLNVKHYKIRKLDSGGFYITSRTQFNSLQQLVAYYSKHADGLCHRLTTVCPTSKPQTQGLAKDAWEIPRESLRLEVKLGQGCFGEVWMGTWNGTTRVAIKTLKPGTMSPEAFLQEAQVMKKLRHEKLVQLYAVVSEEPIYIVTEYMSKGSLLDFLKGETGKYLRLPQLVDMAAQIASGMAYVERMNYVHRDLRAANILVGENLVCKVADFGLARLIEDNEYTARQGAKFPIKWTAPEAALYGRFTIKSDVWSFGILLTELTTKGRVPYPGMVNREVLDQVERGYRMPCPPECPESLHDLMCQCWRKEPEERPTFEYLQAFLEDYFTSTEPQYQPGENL
T2 sequence (Q00534 whole entry): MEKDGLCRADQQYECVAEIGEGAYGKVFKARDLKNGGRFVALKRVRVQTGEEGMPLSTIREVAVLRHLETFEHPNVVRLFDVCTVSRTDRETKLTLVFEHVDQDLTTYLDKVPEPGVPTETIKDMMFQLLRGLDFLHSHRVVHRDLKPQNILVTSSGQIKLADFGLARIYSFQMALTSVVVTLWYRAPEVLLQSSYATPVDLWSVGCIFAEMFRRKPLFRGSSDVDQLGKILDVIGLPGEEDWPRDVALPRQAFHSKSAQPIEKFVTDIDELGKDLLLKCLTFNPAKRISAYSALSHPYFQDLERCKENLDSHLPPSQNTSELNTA
T2 sequence (P30281 whole entry partner): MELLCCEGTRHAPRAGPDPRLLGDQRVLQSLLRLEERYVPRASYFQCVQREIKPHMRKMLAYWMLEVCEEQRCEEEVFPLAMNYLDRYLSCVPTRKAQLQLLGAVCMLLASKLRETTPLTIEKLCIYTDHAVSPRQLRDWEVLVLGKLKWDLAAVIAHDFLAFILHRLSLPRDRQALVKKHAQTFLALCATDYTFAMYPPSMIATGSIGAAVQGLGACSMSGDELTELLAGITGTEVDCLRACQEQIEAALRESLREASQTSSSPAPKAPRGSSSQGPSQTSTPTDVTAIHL
T9 sequence (P09619 33-1106): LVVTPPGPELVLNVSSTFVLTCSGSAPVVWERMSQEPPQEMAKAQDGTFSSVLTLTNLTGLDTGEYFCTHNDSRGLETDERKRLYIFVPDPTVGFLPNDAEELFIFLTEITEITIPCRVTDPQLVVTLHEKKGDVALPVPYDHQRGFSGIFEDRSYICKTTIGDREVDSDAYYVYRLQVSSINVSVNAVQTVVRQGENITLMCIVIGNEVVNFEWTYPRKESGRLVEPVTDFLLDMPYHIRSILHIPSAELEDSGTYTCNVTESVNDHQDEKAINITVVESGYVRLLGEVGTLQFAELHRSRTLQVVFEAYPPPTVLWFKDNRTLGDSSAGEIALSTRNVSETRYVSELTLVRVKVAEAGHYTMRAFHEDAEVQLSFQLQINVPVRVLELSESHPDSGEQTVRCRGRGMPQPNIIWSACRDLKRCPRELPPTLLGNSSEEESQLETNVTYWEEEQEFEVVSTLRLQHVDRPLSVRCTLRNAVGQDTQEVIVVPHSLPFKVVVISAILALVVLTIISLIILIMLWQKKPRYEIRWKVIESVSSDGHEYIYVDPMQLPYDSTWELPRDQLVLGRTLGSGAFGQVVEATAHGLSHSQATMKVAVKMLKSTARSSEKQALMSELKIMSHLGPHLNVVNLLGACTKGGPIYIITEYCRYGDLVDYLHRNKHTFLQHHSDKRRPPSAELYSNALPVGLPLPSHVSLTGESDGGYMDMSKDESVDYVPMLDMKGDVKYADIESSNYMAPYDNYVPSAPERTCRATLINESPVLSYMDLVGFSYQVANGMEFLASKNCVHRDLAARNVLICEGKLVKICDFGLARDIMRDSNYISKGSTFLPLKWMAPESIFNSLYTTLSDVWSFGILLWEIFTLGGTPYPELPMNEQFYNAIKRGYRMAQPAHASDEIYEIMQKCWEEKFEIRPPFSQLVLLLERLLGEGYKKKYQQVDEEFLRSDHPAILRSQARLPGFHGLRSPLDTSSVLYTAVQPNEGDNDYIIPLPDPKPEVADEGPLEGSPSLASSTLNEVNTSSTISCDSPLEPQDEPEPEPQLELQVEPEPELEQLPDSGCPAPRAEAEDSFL
T3 sequence (P53350 2-603): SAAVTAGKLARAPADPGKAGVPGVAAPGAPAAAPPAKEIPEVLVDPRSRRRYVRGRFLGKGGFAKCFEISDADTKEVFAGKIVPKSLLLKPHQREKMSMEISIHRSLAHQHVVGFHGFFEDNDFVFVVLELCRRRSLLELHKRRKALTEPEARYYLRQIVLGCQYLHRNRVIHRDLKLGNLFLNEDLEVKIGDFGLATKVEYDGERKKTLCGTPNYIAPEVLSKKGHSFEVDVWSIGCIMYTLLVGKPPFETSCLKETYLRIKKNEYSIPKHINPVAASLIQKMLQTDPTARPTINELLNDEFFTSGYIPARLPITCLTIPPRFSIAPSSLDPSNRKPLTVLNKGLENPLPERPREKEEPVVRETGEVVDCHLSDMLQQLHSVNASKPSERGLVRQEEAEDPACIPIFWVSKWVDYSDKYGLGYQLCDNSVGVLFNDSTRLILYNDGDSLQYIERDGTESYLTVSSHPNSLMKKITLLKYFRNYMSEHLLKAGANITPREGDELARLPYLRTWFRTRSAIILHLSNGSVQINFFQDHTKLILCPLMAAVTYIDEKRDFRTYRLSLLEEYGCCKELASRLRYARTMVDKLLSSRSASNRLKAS
T7 sequence (Q16539 2-360): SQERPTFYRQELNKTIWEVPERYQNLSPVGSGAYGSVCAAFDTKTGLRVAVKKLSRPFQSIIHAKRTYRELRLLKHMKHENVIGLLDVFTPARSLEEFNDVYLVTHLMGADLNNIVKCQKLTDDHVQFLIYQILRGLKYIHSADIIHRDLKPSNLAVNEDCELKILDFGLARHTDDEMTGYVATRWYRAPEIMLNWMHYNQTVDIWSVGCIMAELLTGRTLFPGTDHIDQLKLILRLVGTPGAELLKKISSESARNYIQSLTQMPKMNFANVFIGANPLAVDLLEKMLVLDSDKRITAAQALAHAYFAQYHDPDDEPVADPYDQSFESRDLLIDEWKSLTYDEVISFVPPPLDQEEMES
T12 sequence (Q00535 whole entry): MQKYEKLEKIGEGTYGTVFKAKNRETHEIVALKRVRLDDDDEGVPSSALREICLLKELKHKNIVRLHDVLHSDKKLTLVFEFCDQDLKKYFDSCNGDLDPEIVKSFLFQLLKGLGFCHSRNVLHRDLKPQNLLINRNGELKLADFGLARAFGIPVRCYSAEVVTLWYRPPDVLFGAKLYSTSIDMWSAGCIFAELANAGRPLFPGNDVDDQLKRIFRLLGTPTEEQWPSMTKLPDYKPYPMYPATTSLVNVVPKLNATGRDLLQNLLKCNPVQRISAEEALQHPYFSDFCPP
T12 sequence (Q15078 2-307 partner): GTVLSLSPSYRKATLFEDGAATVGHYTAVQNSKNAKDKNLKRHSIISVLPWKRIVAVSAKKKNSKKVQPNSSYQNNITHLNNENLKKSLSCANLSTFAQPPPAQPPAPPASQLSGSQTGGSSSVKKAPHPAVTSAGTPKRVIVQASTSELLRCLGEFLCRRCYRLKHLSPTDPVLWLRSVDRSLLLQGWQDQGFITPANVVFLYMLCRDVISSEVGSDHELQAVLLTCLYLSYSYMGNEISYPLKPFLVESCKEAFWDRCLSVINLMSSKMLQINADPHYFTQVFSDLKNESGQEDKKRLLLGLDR
T11 sequence (P06493 whole entry): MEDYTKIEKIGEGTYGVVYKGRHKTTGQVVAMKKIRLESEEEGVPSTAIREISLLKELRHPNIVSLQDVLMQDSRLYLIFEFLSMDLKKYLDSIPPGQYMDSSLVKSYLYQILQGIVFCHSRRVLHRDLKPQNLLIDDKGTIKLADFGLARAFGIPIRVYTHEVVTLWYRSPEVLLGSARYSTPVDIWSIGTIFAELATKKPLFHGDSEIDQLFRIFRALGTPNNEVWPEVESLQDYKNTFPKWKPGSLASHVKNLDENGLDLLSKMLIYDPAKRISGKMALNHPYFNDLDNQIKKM
T11 sequence (P14635 whole entry partner): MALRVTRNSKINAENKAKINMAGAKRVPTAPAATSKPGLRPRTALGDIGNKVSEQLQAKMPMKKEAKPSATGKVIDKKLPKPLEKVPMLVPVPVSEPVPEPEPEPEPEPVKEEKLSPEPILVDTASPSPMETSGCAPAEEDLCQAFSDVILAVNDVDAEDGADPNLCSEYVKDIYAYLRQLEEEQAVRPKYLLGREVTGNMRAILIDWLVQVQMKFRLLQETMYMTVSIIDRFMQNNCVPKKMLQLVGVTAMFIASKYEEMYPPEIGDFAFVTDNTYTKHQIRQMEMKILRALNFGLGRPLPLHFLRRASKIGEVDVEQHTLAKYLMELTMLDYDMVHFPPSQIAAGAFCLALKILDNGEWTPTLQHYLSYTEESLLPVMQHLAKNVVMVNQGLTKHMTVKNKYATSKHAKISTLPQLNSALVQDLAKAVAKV
T4 sequence (P28482 2-360): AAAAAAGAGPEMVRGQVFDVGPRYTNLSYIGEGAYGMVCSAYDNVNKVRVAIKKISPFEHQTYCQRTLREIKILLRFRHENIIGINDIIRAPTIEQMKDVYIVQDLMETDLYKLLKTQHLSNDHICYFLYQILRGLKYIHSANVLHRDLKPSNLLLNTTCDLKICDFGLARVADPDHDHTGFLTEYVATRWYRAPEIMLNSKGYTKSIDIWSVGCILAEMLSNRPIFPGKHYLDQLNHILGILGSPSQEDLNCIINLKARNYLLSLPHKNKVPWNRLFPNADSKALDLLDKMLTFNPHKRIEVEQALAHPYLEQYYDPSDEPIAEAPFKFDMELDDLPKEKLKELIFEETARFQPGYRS

With `CC[C@H](Nc1nc(NCc2cccnc2)c2ncn(C(C)C)c2n1)[C@@H](C)O` [CCT068127], the IC50 against LCK is greater than 10 µM; on CDK6/D3, 6.2 ± 0.6 µmol/L; against PLK1 it was greater than 10 µM; against ERK2, greater than 10 µM; at ABL, greater than 10 µM; at AURKA it was greater than 10 µM. Also, the half-maximal inhibitory concentration (IC50) on SAP2KA is greater than 10 µM; against FLT3, greater than 10 µM; on PDGFB, greater than 10 µM; against SRC, greater than 10 µM; on CDK1/B (CDK1/cyclin B), 1.1 ± 0.29 µmol/L; at CDK5/p35, 0.07 µmol/L.
